{
  "source": "patent US12378518B2",
  "about": "“Differentiation induction from human pluripotent stem cells into hypothalamic neurons” (National University Corporation Nagoya University, priority 2016, dated 2025)",
  "molecules": {"B1": {"name": "BMP4: bone morphogenetic protein signal transduction pathway activating substance; a known cytokine (protein, UniProt P12644 293-408, looked up)", "Bone morphogenetic protein 4": "SPKHHSQRARKKNKNCRRHSLYVDFSDVGWNDWIVAPPGYQAFYCHGDCPFPLADHLNSTNHAIVQTLVNSVNSSIPKACCVPTELSAISMLYLDEYDKVVLKNYQEMVVEGCGCR"}},
  "format_in_all_cases": "cell-based",
  "key": {"CRH-R1": {"molecular_target": "T1, CRH-R1 (Homo sapiens, UniProt P34998)", "T1 construct": "it was confirmed, by analysis by the fluorescent antibody method, that ACTH positive cells were CRH-R1 positive; endogenous in cells; host or cells: pituitary tissue (ACTH-positive cells) differentiated from human iPS cells, 201B7 strain", "T1 sequence (P34998 24-415)": "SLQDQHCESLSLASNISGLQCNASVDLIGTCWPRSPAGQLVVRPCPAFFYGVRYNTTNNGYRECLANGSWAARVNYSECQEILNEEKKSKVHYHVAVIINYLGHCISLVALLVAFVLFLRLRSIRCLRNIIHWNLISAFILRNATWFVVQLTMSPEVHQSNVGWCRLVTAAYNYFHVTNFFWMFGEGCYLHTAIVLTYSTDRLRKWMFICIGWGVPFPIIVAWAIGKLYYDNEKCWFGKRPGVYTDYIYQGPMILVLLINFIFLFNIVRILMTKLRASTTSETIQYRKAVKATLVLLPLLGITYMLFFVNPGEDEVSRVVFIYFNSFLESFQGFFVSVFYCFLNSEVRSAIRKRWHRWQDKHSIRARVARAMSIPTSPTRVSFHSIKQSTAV", "experiment": "ACTH suppression test using a CRH-R1 inhibitor", "conditions": "CRH-R1 inhibitor 10^−5 M added at the time of stimulation with CRH addition", "protocol": "(§1) Human iPS cells (201B7 strain) were cultured under conditions (see column A.2) that were effective for simultaneous maturation of hypothalamus and pituitary. Pituitary tissue and hypothalamic tissue were observed on Day 60 of culture, and ACTH neurons were detected in pituitary tissue. In addition, the amount of ACTH secreted from pituitary tissue was increased by long-term culture (FIG. 19), and it was confirmed that the maturation of pituitary tissue had progressed with the lapse of culture time.\nTo further evaluate the function of pituitary tissue obtained by culture under the conditions in (1), an ACTH suppression test using a CRH-R1 inhibitor (Antalarmin, NBI2719) was performed (right in FIG. 23). A CRH-R1 inhibitor was added at a dose of 10^−5 M (test group) at the time of stimulation with CRH addition, and the amount of ACTH secreted was compared with that when no CRH-R1 inhibitor was added (control group). As a result of the test, the secretion of ACTH was suppressed by the CRH-R1 inhibitor (left and center in FIG. 23)."}, "human ES cells (KhES-1)": {"system": "human ES cells (KhES-1)", "experiment": "Differentiation induction of human ES cells by SFEBq method, analysed by fluorescent antibody method", "conditions": "Day 30 of culture", "excerpt": "Next, it was examined whether the method can be applied also to human ES cells. Human ES cells (KhES-1) were subjected to maintenance culture by a conventional method on MEF and then used. To monitor differentiation induction into a hypothalamic tissue, KhES-1 wherein a Venus cDNA has been knocked-in into the gene of Rx which is a hypothalamic nerve marker was used. To differentiate human ES cells by Serum-Free Embryonic Body quick method (SFEBq method), human ES cells were dispersed to single cells using an enzyme by the method of Nakano et al. (Cell Stem Cell. 2012 Jun. 14; 10 (6): 771-85), and reaggregated using a low cell adhesive V-bottom 96-well plate (Sumitomo Bakelite Co., Ltd.). Ten thousand (10,000) cells were seeded per well and cultured in a gfCDM differentiation medium at 37° C. under 5% CO2. With the day of seeding defined as Day 0 of differentiation culture, 20 μM Y-27632 (ROCK inhibitor: cell death suppressor at the time of dispersion: Watanabe et al. (Nat Biotechnol. 2007 June; 25 (6): 681-6. Epub 2007 May 27.)) was added from Day 0 to Day 3, and, on and after Day 3 of culture, a half of the medium was exchanged with a differentiation medium free from Y-27632 at a frequency of once every 3 days. Based on the thought that no aggregate was formed due to nutritional deficiency, a small amount of a serum alternative KSR was added to the gfCDM to verify the effect. Specifically, the SFEBq method was performed by mixing 2%, 5%, 10%, and 20% KSR in the gfCDM medium. On and after Day 18, the oxygen partial pressure during culture was set to 40%. The differentiation of the tissue was analyzed by a fluorescent antibody method. Based on the thought that the positional shift to the telencephalon was caused by various growth factors included in KSR, the addition of a bone morphogenetic protein signal transduction pathway activating substance was decided. Specifically, differentiation induction was attempted under the following conditions. […]"}, "[1]": {"system": "AVP neurons induced from human ES cells (KhES-1)", "experiment": "KCl stimulation test of induced AVP neurons (AVP hormone by RIA method)", "conditions": "isotonic solution containing 0.1% potassium chloride for 30 minutes; cells on Day 180 of culture", "excerpt": "As a result of continuing suspension culture under the dorsal hypothalamus induction conditions, the expression of Otp and Brn2 (generally, Otp and Brn2 positive hypothalamus is thought to be in the precursor state of AVP neurons) was confirmed on Day 60 of culture (FIG. 6), and a small number of AVP-positive cells were observed on Day 103 of culture (FIG. 7). In order to improve the induction efficiency, the incorporation of dissociation culture, which is considered to be advantageous in neurogenesis, was decided. Specifically, differentiation induction was attempted under the following conditions. Cell aggregates were dispersed, and cells were seeded at 2×10^4 to 40×10^4 cells/cm^2 on glass plates coated with Laminin, Poly-D-Lysine and Matrigel, respectively, and subjected to plane culture in media obtained by adding NT3, BDNF, CNTF, and FBS, respectively, to a DFNB medium. Medium exchange was carried out at a frequency of once every 3 days.\nAs a result of differentiation induction under the above conditions, the appearance of AVP neurons was confirmed on Day 150 of culture (FIG. 8). […] First, the medium after used for cell culture for 3 days was recovered, and the AVP hormone in the medium was measured by RIA method. […]"}, "[2]": {"system": "pituitary tissue (ACTH neurons) from human iPS cells (201B7 strain)", "experiment": "ACTH stimulation test using CRH", "conditions": "CRH added at 5 μg/ml; pituitary tissue from human iPS cells (201B7)", "protocol": "as §1\nIn order to evaluate the function of pituitary tissue obtained by culture under the conditions in (1), an ACTH stimulation test using CRH (right in FIG. 21) was performed. The test method was in accordance with the previously reported method (Ozone C et al., Functional anterior pituitary generated in self-organizing culture of human embryonic stem cells. Nat Commun. 2016 Jan. 14; 7: 10351.) (CRH was added at 5 μg/ml). […] In addition, it was confirmed, by analysis by the fluorescent antibody method, that ACTH positive cells were CRH-R1 positive (center in FIG. 21)."}, "[3]": {"conditions": "SAG 0.5 μM with BMP signal activating substance 1.5 to 2.0 nM from Day 6"}},
  "note": "Entries after “also recorded” stand apart in the source; their conditions may differ. Ends that are not written are not given here.",
  "data": [
    {"molecule": "CCCCN(CC)c1nc(C)nc2c1c(C)c(C)n2-c1c(C)cc(C)cc1C", "note": "[Antalarmin]", "values": [
      {"measurement": "amount of ACTH secreted vs control group without CRH-R1 inhibitor", "setting": "CRH-R1", "value": "suppressed"}
    ]},
    {"molecule": "CN[C@H]1CC[C@H](N(Cc2cccc(-c3ccncc3)c2)C(=O)c2sc3ccccc3c2Cl)CC1", "note": "[SAG]", "values": [
      {"measurement": "differentiation efficiency of hypothalamic precursor cells", "setting": "human ES cells (KhES-1); [3]", "value": "exceeded 80%"},
      {"measurement": "marker expression of cell aggregates", "setting": "human ES cells (KhES-1); [3]", "value": "co-positive for Rx and Pax6 and Chx10 negative"}
    ]},
    {"molecule": "[Cl-].[K+]", "note": "[potassium chloride]", "values": [
      {"measurement": "response of AVP neurons (AVP hormone secretion) to stimulation", "setting": "[1]", "value": "responded well"}
    ]},
    {"molecule": "CRH: corticotropin releasing hormone, added at 5 μg/ml in the ACTH stimulation test (SEEPPISLDLTFHLLREVLEMARAEQLAQQAHSNRKLMEII; ends and bridges not checked; UniProt P06850 154-194, looked up)", "values": [
      {"measurement": "ACTH secretion in response to CRH", "setting": "[2]", "value": "ACTH was secreted in response to CRH"}
    ]},
    {"molecule": "B1", "values": [
      {"measurement": "marker expression", "setting": "human ES cells (KhES-1); about 3.0 nM from Day 6, KSR-containing gfCDM", "value": "Rx as a hypothalamic marker and Pax6 as a dorsal marker became co-positive; also recorded: the retinal marker Chx10 also became positive"}
    ]}
  ]
}
